From PubChem BioAssay AID1159562 (GlaxoSmithKline (GSK), 2015) come the findings set out here.

SMILES strings stand for the structures. The source made the active and inactive calls. The rule behind the calls is not given here.

The subject of this assay is Trypanosoma brucei growth inhibition, luminescence. As to the kind of experiment: antitrypanosomal activity against T. brucei – luminescence (AID 1159562).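 Note: parasites grew with compound for 24 h before the luminescence read.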
For orientation: IC50 means the concentration that inhibits the measured activity by half. For the compound `N#Cc1c(Oc2cccc(Cl)c2)cccc1[N+](=O)[O-]`, the IC50 is 0.005 µM.

`Cc1[nH]n2c(=O)c3c(nc2c1-c1ccc(Cl)cc1)CCCC3`: the IC50 was 0.32 µM. For `CNc1cncc(C2CCCN2C(=O)Cc2coc3cc(C)ccc23)n1` (stereo not given), the IC50 was > 40 µM (inactive). To `CCN(CC)S(=O)(=O)c1ccc(Cn2nc(C(=O)Nc3ccncn3)c3ccccc32)cc1` belongs > 40 µM (inactive). Turning to `CC(C)C[C@H](NC(=O)c1csc(-c2cccs2)n1)C(=O)NC1(C#N)CC1`, the 50% inhibitory concentration (IC50) is 0.1 µM. With `CN(Cc1cccnc1)Cc1ccc(N2CCN(C(=O)C3(c4ccc(Cl)cc4)CC3)CC2)nc1` the figure was 25 µM.

For the compound `Cc1sc(C)c(C(F)(F)F)c1CNCCCNc1cc(=O)c2ccccc2[nH]1`, the IC50 is 0.013 µM. To `Cc1[nH]nc(-c2nc3ccccc3[nH]2)c1C(=O)NC1CCCNC1` (stereo not given) belongs 0.5 µM; to `Cc1cc(=O)n2nc(Oc3ccc(C#N)cc3Cl)sc2n1`, 0.32 µM.

For the compound `CN1CCN(c2nc(-c3ccc(Cl)cc3)c3c(N)n(C)nc3n2)CC1`, the IC50 was 32 µM.

`COc1ccc([N+](=O)[O-])cc1NC(=O)c1cc(Cl)ccc1O`: the half-maximal inhibitory concentration (IC50) was 25 µM. With `N#CN1CC[C@@H](NC(=O)Nc2ccccc2Oc2ccccc2)C1` the figure was 7.9 µM; with `O=S(=O)(NCC(c1cccnc1)N1CCN(c2ccccc2F)CC1)c1ccc(F)cc1` (stereo not given), > 40 µM (inactive); with `O=C(Nc1nccs1)c1ccccc1Cn1cc([N+](=O)[O-])cn1`, 0.5 µM. As to `CC(C)(C)C(O)(CCc1ccc(Cl)cc1)Cn1cncn1` (stereo not given), the IC50 was > 40 µM (inactive). With `Cc1cc(N2CCc3ccccc3C2)nc(Nc2ccc(S(=O)(=O)N3CCOCC3)cc2)n1`, the IC50 was > 40 µM (inactive). With `c1ccc(Nc2nc3ccccc3[nH]2)nc1` the figure was 25 µM. Turning to `COc1cccc(Nc2cc(C)nc(-c3ccccn3)n2)c1`, the IC50 was > 40 µM (inactive). For `Clc1ccc(Sc2cnccc2N2CCOCC2)cc1`, the IC50 was > 40 µM (inactive). To `CS(=O)(=O)c1ccc(Nc2nccc(Nc3n[nH]c4ccc(F)cc34)n2)c(F)c1` belongs 0.79 µM; to `O=S(=O)(c1cccc(CSc2nnc(-c3ccc4c(c3)OCO4)o2)c1)N1CCOCC1`, > 40 µM (inactive); to `CC1=NN(C(=O)CCn2cnc([N+](=O)[O-])n2)C(O)(C(F)(F)F)C1` (stereo not given), > 40 µM (inactive).

With `CCN(C)Cc1ccc(N2CCC(NS(=O)(=O)c3ccc4c(c3)CCO4)CC2)nc1`, the IC50 is 40 µM. To `Cc1cc(C#N)c([N+](=O)[O-])cc1Br` belongs 4 µM; to `CCOc1ccc(N(C)S(=O)(=O)c2ccc3[nH]cc(C(=O)NC4CCCC4)c(=O)c3c2)cc1`, 0.5 µM.

As for `COc1ccc(C(C)N(C)c2ncc3c(N)nc(N)nc3n2)cc1F` (stereo not given), the half-inhibitory concentration (IC50) is 5 µM. To `c1ccc(-c2nc(NC3CCCC3)c3ccccc3n2)nc1` belongs 6.3 µM. Take `CCC(=O)N1N=C(c2ccc3c(c2)CCCC3)Sc2c1ncn2C(=O)CC`: the IC50 was 20 µM.

On to `COc1cc(-c2noc(CC#N)n2)ccc1OC(F)F`, for which the IC50 is 0.63 µM. To `COc1ccc(Nc2nc(-c3ccccn3)cs2)c(OC)c1` belongs 25 µM. With `CNC(=O)C1Cc2ccccc2N1C(=O)Cc1ccccc1` (stereo not given) the figure was 1 µM; with `O=C(Nc1nc(-c2ccc(F)cc2)cs1)c1ccc([N+](=O)[O-])s1`, 1.3 µM; with `Cc1[nH]n2c(=O)c3c(nc2c1-c1ccc(Br)cc1)CCCC3`, 0.79 µM. With `COc1ccc(Nc2nc(-c3ccccn3)cc(N3CCCC(O)C3)n2)cc1` (stereo not given) the figure was 13 µM; with `CCCCN(C(=O)c1ccc(NC(=O)C(C)C)cc1)c1ccccc1`, > 40 µM (inactive); with `CCOc1cc(NCCCN2CCN(C)CC2)c2ncccc2c1`, 20 µM. In the case of `N#Cc1ccc(C(=O)Nc2cccc(-c3cccc(CN4CCC(O)CC4)c3)c2)cc1`, the concentration for half-maximal inhibition (IC50) was 0.79 µM. With `CC1CN(Cc2ccc(C#N)cc2)CCN1c1ccc(NC(=O)c2ccccc2F)cc1` (stereo not given), the IC50 is > 40 µM (inactive). Consider `O=C1CN(C2CCCc3c(OCc4ccncc4)cccc32)C(=O)N1C1CCCCC1` (stereo not given), for which the IC50 is > 40 µM (inactive). For the compound `O=C(Cc1ccccc1)Nc1ccccc1C(=O)Nc1nccs1`, the 50% inhibitory concentration (IC50) was 0.25 µM. To `COc1ccc(-c2cc(C)no2)cc1S(=O)(=O)Nc1ccc(C)c(C)c1` belongs 20 µM; to `CC(C)N(C(=O)CN1C(=O)C(N)C(=O)N(c2ccccc2)c2ccccc21)c1ccccc1` (stereo not given), > 40 µM (inactive).

With `Cc1ccccc1OCC(=O)N1CCCN(c2cccnn2)CC1`, the IC50 was > 40 µM (inactive). As to `Cc1ccc(NC(=O)c2ccc(Cl)c(NC(=O)c3ccc([N+](=O)[O-])cc3)c2)cc1`, the IC50 is 16 µM. `O=C(NCC(c1cccs1)N1CCOCC1)c1ccc([N+](=O)[O-])o1` (stereo not given): the half-inhibitory concentration (IC50) is 0.32 µM.

As for `Cc1ccccc1CNC(=O)CN(Cc1ccccn1)Cc1ccccn1`, the IC50 was 20 µM. As for `O=C(c1ccccc1)N1CCC(C(=O)N2CCC(Oc3ccccc3Cl)CC2)CC1`, the IC50 was 1 µM. Regarding `O=C(Nc1nc(-c2ccccn2)cs1)N1C[C@H]2C[C@@]2(c2ccccc2)C1`, the half-maximal inhibitory concentration (IC50) was 0.63 µM.

`NC(=O)c1cc(F)ccc1Nc1nc(NC2CCC(O)CC2)ncc1Cl` (stereo not given): the IC50 is 0.63 µM. Take `COc1cccc(NS(=O)(=O)c2ccc3[nH]cc(C(=O)NCCC(C)C)c(=O)c3c2)c1`: the IC50 is 0.63 µM. Regarding `COCCn1c(-c2ccc3c(c2)OCO3)cnc1NCc1ccccc1OC`, the half-maximal inhibitory concentration (IC50) was 25 µM. With `C=CCN(Cc1cccs1)C(=O)CSc1nnc(-c2ccc3c(c2)OCO3)o1` the figure was 40 µM; with `O=c1[nH]ccc2ccc(-c3ccncc3)cc12`, > 40 µM (inactive); with `CCCN(Cc1ccc(OC)c(OC)c1)Cc1cc(=O)c2c(C)cc(C)cc2[nH]1`, > 40 µM (inactive). As to `O=C(NCc1nnc2n1CCCCC2)c1ccc(-c2ccc(F)cc2)o1`, the half-maximal inhibitory concentration (IC50) was 0.25 µM.

With `Cc1ccc(C)c(CN2C(=O)NC3(CCc4ccccc43)C2=O)c1` (stereo not given), the IC50 is 1 µM. To `Cc1nc2c(-c3ncn[nH]3)cc(NC(=O)Cc3ccccc3)cn2c1C` belongs 10 µM. To `COc1ccccc1-c1c(C)[nH]c2nc(N)nc(C)c12` belongs > 40 µM (inactive); to `O=C(Nc1ccc(Br)cn1)c1ccc(Cn2cnc([N+](=O)[O-])n2)cc1`, 3.2 µM. On to `CN(Cc1ccc(F)cc1)c1ccc(OCC(=O)N2CCCCC2c2cccnc2)nn1` (stereo not given), for which the IC50 is > 40 µM (inactive). To `CCOc1ccc(NC(=O)c2ccc(NC(=O)NC3CCCCC3)cc2)cc1` belongs 0.5 µM.

Turning to `Cc1nc(-c2nc(NCc3ccc(Cl)cc3)c3cccnc3c2O)n[nH]1`, the half-inhibitory concentration (IC50) is 0.79 µM. With `CC1CN(S(=O)(=O)c2ccc(NC(=O)c3cc(C4CC4)nc4c3cnn4C(C)C)cc2)CC(C)O1` (stereo not given) the figure was 6.3 µM; with `N#Cc1cccc(CNc2ccc(-c3cnn(CC4CC4)c(=O)c3C#N)cc2)c1`, 13 µM. Regarding `NC(=O)c1cc(NC(=O)c2ccccc2COc2ccccc2)ccc1Cl`, the IC50 is > 40 µM (inactive). With `CS(=O)(=O)c1ccc(Nc2nccc(-c3cnn4ncccc34)n2)cc1` the figure was 0.2 µM; with `Cc1nc2c(-c3nc(-c4ccc(N)cc4)n[nH]3)cccn2c1C`, 25 µM; with `CCC(=O)Nc1ccccc1C(=O)Nc1ccccn1`, 0.4 µM.

For `Cc1ccnc(NS(=O)(=O)c2ccc(NC(=O)c3ccc([N+](=O)[O-])s3)cc2)n1`, the IC50 is 0.4 µM.

As for `CCN(CC)S(=O)(=O)c1ccc(C)c(NC(=O)c2cc(Cl)c3c(c2)OCO3)c1`, the IC50 is 0.16 µM. Turning to `Cc1cn[nH]c1C1CCCN(Cc2nc3ccccc3n2C)C1` (stereo not given), the IC50 was 7.9 µM.

`CCc1ccccc1[C@@H](C)NC(=O)c1cnc2c(cnn2CC)c1NC1CCN(C(N)=O)CC1`: the IC50 was 0.5 µM. On to `O=C(NCc1ccncc1)c1ccccc1N1CCCN(C(=O)Cc2ccc(F)c(F)c2)CC1`, for which the IC50 was 20 µM. With `O=C1NCCn2ccc(Nc3nc(NC4CCC(O)CC4)ncc3Cl)c21` (stereo not given), the IC50 was 0.63 µM. Regarding `Cc1nn(-c2nc(N)nc(-c3ccccn3)n2)c(N)c1-c1ccccc1`, the IC50 is 6.3 µM.

`N#Cc1cc(-c2ccnc(Nc3cccc(CN4CCOCC4)c3)n2)ccc1NCCN`: the IC50 was 1.3 µM. To `Cc1cccnc1CN1CCN(CCCOc2ccc(-c3ccc(C(N)=O)cc3)cc2)CC1` belongs > 40 µM (inactive). To `O=C(NCC1CCCCN1C(=O)c1cccc2ccccc12)c1ccccc1` (stereo not given) belongs 0.4 µM; to `CS(=O)(=O)NC1CCC(Oc2cc3cnccc3cc2-c2ccsc2)CC1` (stereo not given), > 40 µM (inactive); to `CC(C)CC(=O)NC(c1cccs1)c1ccc2cccnc2c1O` (stereo not given), 0.63 µM. Take `CS(=O)(=O)c1ccccc1C(=O)N(Cc1ccccc1)c1ccccc1`: the 50% inhibitory concentration (IC50) is 0.63 µM. Take `CC(=Cc1ccccc1)CN1CCC(=O)N(Cc2cccnc2)CC1`: the IC50 was > 40 µM (inactive). In the case of `CCN(Cc1ccncc1)Cc1ccc(NC(=O)c2cc(-c3ccc(F)cc3)n[nH]2)cc1`, the IC50 is > 40 µM (inactive). To `COc1cc(OC)cc(C(=O)N[C@@H](CC(C)C)C(=O)NC2(C#N)CC2)c1` belongs 0.063 µM. With `CCN(CC)c1nc(Nc2ccncc2)nc2ccccc12`, the IC50 is 5 µM.

With `Cn1nc(C(=O)N2CCc3ccccc32)c2c1CCS(=O)(=O)C2`, the IC50 was 6.3 µM.

For the compound `C=CCn1nc([N+](=O)[O-])nc1Oc1ccc(Cl)cc1Cl`, the IC50 is > 40 µM (inactive). To `C=CCOCC1Cn2nc([N+](=O)[O-])nc2O1` (stereo not given) belongs > 40 µM (inactive); to `CCN(Cc1cccs1)C(=O)CSc1nnc(-c2ccc3c(c2)OCO3)o1`, > 40 µM (inactive). In the case of `Cc1cc(N(C)C)nc(Nc2ccccc2C)n1`, the IC50 was > 40 µM (inactive). To `Cc1cc(NC(=O)c2ccc([N+](=O)[O-])s2)ccc1Br` belongs 5 µM. For `O=[N+]([O-])c1ccc(C2=CC(c3ccccc3)=NCCN2)cc1`, the IC50 was > 13 µM (inactive). To `N#Cc1cc(N2CCCC2=O)ccc1Sc1ccccc1CO` belongs 32 µM; to `O=c1ccc2ccc(F)c3c2n1C[C@H]3CN1CCN(CC(O)c2cc3c(cn2)OCS3)CC1` (stereo not given in full), 0.4 µM.

For the compound `Oc1c(-c2n[nH]c(CCc3ccccc3)n2)ncc2cccnc12`, the IC50 is 1.6 µM.
